These results are taken from patent US10660877B2 (BRISTOL-MYERS SQUIBB COMPANY, priority 2016, dated 2020).

For test [1], the target named is human TLR7 (Homo sapiens (Human), UniProt Q9NYK1). As to the kind of experiment: TLR7 inhibition reporter assay (HEK-Blue cells, SEAP reporter, gardiquimod stimulation). It counts as cell-based. The conditions noted are these: HEK-Blue cells, gardiquimod 7.5 μM. (In a reporter assay the amount or activity of a reporter protein is the signal.)
Test [2] concerns the target human TLR8 (Homo sapiens (Human), UniProt Q9NR97). As to the kind of experiment: TLR8 inhibition reporter assay (HEK-Blue cells, SEAP reporter, R848 stimulation).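 Also: compounds tested from 0.05 nM to 50 µM, 22 h at 37 °C, SEAP measured with HEK-Blue Detection, inhibition relative to agonist plus DMSO versus a known inhibitor.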
In test [3] the target is human TLR9 (Homo sapiens (Human), UniProt Q9NR96). As to the kind of experiment: TLR9 inhibition reporter assay (HEK-Blue cells, SEAP reporter, ODN2006 stimulation).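 Also: compounds tested over 0.05 nM to 50 µM, 22 h incubation, inhibition taken as SEAP signal drop from agonist plus DMSO wells toward a known inhibitor control.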
Where [4] appears, read: read-out: TLR8 IC50, HEK-Blue cells, R848 15.9 μM.
Setting [5] is: read-out: TLR9 IC50, HEK-Blue cells, ODN2006 5 nM.

Read-outs that look alike come from different tables or passages of the source.

human TLR8, sequence (Q9NR97 27-1041): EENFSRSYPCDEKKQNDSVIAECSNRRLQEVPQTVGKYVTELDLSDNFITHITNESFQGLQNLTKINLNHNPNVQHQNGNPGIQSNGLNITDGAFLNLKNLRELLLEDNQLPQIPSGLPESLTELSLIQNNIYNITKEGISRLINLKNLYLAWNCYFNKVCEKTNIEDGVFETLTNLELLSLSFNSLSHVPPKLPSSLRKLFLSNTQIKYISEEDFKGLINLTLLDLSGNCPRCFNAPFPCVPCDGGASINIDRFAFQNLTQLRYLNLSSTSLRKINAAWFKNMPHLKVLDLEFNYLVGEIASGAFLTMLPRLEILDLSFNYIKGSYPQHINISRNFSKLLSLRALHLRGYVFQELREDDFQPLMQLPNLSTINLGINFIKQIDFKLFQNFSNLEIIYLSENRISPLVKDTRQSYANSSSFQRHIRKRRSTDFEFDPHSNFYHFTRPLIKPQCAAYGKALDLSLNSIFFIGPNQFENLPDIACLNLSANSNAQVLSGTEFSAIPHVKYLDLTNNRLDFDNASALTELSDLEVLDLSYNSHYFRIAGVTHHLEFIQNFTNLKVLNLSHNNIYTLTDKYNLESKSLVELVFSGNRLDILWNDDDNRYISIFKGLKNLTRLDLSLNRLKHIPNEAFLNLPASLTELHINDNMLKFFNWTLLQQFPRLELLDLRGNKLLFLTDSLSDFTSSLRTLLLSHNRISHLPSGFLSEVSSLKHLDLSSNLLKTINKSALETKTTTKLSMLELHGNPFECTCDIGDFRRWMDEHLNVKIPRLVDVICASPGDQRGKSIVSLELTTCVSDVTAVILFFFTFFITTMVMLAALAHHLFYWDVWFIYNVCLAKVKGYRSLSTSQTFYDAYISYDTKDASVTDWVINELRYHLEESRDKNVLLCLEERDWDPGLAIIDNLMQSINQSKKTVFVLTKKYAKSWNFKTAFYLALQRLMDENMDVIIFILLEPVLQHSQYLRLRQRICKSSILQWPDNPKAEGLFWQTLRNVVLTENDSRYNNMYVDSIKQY
human TLR7, sequence (Q9NYK1 27-1049): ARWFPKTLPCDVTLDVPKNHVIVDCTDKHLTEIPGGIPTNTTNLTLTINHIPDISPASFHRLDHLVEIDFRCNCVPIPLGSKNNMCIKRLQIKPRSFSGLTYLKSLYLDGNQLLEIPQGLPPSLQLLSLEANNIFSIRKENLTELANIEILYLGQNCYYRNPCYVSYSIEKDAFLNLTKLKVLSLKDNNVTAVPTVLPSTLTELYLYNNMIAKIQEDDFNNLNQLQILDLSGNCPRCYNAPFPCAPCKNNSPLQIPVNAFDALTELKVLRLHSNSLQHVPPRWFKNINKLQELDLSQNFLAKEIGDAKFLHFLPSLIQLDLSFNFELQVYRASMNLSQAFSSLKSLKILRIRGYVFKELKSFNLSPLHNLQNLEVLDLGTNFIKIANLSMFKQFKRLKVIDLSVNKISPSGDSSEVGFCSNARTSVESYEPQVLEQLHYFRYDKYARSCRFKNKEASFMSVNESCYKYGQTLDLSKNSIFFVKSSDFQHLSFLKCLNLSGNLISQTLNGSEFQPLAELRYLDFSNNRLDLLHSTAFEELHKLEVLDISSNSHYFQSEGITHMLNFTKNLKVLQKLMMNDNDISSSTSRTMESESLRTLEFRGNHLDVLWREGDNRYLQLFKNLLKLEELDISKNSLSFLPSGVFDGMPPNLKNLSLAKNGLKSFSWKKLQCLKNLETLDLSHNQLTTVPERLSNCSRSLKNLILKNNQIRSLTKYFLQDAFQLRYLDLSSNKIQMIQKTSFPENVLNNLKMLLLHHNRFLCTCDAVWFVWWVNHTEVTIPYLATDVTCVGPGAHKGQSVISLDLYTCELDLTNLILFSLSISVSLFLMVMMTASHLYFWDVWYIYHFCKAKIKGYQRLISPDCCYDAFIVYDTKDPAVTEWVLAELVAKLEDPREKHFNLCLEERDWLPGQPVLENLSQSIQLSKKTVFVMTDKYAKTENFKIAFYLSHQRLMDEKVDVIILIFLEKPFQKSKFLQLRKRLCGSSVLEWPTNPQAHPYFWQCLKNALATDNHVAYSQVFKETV
human TLR9, sequence (Q9NR96 26-1032): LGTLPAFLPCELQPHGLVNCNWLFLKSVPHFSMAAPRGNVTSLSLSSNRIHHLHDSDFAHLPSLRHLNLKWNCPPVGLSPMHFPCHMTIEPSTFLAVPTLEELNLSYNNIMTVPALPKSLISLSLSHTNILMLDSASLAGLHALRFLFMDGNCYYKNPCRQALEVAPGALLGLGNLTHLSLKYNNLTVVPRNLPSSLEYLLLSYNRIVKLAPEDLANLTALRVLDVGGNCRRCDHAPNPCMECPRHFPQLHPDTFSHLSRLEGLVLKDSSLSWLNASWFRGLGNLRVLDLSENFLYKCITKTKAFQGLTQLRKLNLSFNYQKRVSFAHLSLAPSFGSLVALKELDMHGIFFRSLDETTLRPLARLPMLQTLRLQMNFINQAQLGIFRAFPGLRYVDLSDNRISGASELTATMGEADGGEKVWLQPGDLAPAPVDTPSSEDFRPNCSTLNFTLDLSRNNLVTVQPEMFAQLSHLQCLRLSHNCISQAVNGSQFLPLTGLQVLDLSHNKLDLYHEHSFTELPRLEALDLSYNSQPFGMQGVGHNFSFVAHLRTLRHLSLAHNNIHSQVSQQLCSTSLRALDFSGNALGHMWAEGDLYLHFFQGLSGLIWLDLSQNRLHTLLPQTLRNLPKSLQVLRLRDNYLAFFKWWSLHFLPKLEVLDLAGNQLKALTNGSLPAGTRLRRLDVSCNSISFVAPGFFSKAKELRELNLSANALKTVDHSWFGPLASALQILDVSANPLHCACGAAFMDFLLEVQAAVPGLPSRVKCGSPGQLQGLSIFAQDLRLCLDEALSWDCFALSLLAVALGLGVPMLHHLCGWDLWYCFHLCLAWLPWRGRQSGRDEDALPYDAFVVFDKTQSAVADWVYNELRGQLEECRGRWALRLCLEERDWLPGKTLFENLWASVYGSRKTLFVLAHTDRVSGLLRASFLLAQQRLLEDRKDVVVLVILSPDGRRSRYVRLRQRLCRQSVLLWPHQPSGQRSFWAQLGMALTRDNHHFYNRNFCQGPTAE

For `Cc1cc(-c2[nH]c3ccc(C4CCN(C5CCN(CC(C)C)CC5)CC4)cc3c2C)ccn1` [Example 810, 5-(1′-isobutyl-[1,4′-bipiperidin]-4-yl)-3-methyl-2-(2-methylpyridin-4-yl)-1H-indole], the figures for the 50% inhibitory concentration (IC50) in test [1], in test [2] (setting [4]) and in test [3] (setting [5]) were 145 nM, 16.2 nM and 19 nM, respectively.

With `Cc1cc(-c2[nH]c3ccc(C4CCN(C5CCN(C(C)C)CC5)CC4)cc3c2C)ccn1` [Example 811, 5-(1′-isopropyl-[1,4′-bipiperidin]-4-yl)-3-methyl-2-(2-methylpyridin-4-yl)-1H-indole], the IC50 (commonly the concentration that inhibits the measured activity by half) worked out at 117 nM in test [1], 47.2 nM in test [2] (setting [4]) and 23 nM in test [3] (setting [5]).

Turning to `Cc1nccc(-c2[nH]c3ccc(C4CCN(C5CCN(C(C)C)CC5)CC4)cc3c2C)c1C` [Example 812, 2-(2,3-dimethylpyridin-4-yl)-5-(1′-isopropyl-[1,4′-bipiperidin]-4-yl)-3-methyl-1H-indole], the IC50 was 404 nM in test [1], 44.5 nM in test [2] (setting [4]) and 35 nM in test [3] (setting [5]).

On to `Cc1cc(-c2[nH]c3ccc(C4CCN(C5CCN(C(C)C)CC5)CC4)cc3c2C)cc(C)n1` [Example 813, 2-(2,6-dimethylpyridin-4-yl)-5-(1′-isopropyl-[1,4′-bipiperidin]-4-yl)-3-methyl-1H-indole], for which the IC50 was 533 nM in test [1], 114 nM in test [2] (setting [4]) and 42 nM in test [3] (setting [5]).

For `Cc1cc(-c2[nH]c3ccc(C4CCN(C5CCN(C(C)C)CC5)CC4)cc3c2C)c(C)cn1` [Example 814, 2-(2,5-dimethylpyridin-4-yl)-5-(1′-isopropyl-[1,4′-bipiperidin]-4-yl)-3-methyl-1H-indole], the IC50 was determined as 50.7 nM in test [1], 2.4 nM in test [2] (setting [4]) and 101 nM in test [3] (setting [5]).

For the compound `CNCCN1CCC(c2ccc3[nH]c(-c4ccnc(C)c4)c(C)c3c2)CC1` [Example 815, N-methyl-2-(4-(3-methyl-2-(2-methylpyridin-4-yl)-1H-indol-5-yl)piperidin-1-yl)ethan-1-amine], the half-inhibitory concentration (IC50) in test [1] worked out at 124 nM; in test [2] (setting [4]), 73.4 nM; in test [3] (setting [5]) it was 313 nM.

In the case of `Cc1nc[nH]c1CN1CCC(c2ccc3[nH]c(-c4ccnc(N)c4)c(C(C)C)c3c2)CC1` [Example 816, 4-(3-isopropyl-5-(1-((4-methyl-1H-imidazol-5-yl)methyl)piperidin-4-yl)-1H-indol-2-yl)pyridin-2-amine], the results for the IC50 in test [1], in test [2] (setting [4]) and in test [3] (setting [5]) were 215 nM, 47.3 nM and 86 nM, respectively.

With `CC(C)c1c(-c2ccnc(N)c2)[nH]c2ccc(C3CCN(Cc4cnc[nH]4)CC3)cc12` [Example 817, 4-(5-(1-((1H-imidazol-5-yl)methyl)piperidin-4-yl)-3-isopropyl-1H-indol-2-yl)pyridin-2-amine], the IC50 is 224 nM in test [1], 56 nM in test [2] (setting [4]) and 177 nM in test [3] (setting [5]).

Consider `Cc1ncc(CN2CCC(c3ccc4[nH]c(-c5ccnc(N)c5)c(C(C)C)c4c3)CC2)[nH]1` [Example 818, 4-(3-isopropyl-5-(1-((2-methyl-1H-imidazol-5-yl)methyl)piperidin-4-yl)-1H-indol-2-yl)pyridin-2-amine], for which the figures for the 50% inhibitory concentration (IC50) in test [1], in test [2] (setting [4]) and in test [3] (setting [5]) were 283 nM, 53.3 nM and 230 nM, respectively.

For `CC(C)c1c(-c2ccnc(N)c2)[nH]c2ccc(C3CCN(C(=O)C4CCNCC4)CC3)cc12` [Example 819, (4-(2-(2-aminopyridin-4-yl)-3-isopropyl-1H-indol-5-yl)piperidin-1-yl)(piperidin-4-yl)methanone], the IC50 in test [1] worked out at 415 nM; in test [2] (setting [4]) it was 588 nM; in test [3] (setting [5]), 712 nM.

Take `Cc1cc(-c2[nH]c3ccc(C4CCN(Cc5cnc[nH]5)CC4)cc3c2C(C)C)ccn1` [Example 820, 5-(1-((1H-imidazol-5-yl)methyl)piperidin-4-yl)-3-isopropyl-2-(2-methylpyridin-4-yl)-1H-indole]: the IC50 in test [1] was determined as 71.5 nM; in test [2] (setting [4]), 5.8 nM; in test [3] (setting [5]) it was 209 nM.

On to `Cc1cc(-c2[nH]c3ccc(C4CCN(Cc5cnc(C)[nH]5)CC4)cc3c2C(C)C)ccn1` [Example 821, 3-isopropyl-5-(1-((2-methyl-1H-imidazol-5-yl)methyl)piperidin-4-yl)-2-(2-methylpyridin-4-yl)-1H-indole], for which the half-maximal inhibitory concentration (IC50) in test [1] was found to be 36.3 nM; in test [2] (setting [4]), 4.8 nM; in test [3] (setting [5]), 192 nM.

Consider `CCc1c(-c2ccncc2)[nH]c2ccc(C3CCN(Cc4cnc(Nc5ccccn5)s4)CC3)cc12` [Example 822, 5-((4-(3-ethyl-2-(pyridin-4-yl)-1H-indol-5-yl)piperidin-1-yl)methyl)-N-(pyridin-2-yl)thiazol-2-amine], for which the IC50 was found to be 841 nM in test [1], 12900 nM in test [2] (setting [4]) and 1090 nM in test [3] (setting [5]).

For the compound `Cc1cc(-c2[nH]c3ccc(C4CCN(Cc5cnc[nH]5)CC4)cc3c2C(C)C)c(N)cn1` [Example 823, 4-(5-(1-((1H-imidazol-5-yl)methyl)piperidin-4-yl)-3-isopropyl-1H-indol-2-yl)-6-methylpyridin-3-amine], the IC50 was 36.2 nM in test [1], 7.6 nM in test [2] (setting [4]) and 400 nM in test [3] (setting [5]).

Regarding `Cc1cc(-c2[nH]c3ccc(C4CCN(Cc5cnc[nH]5)CC4)cc3c2C(C)C)c(C)cn1` [Example 824, 5-(1-((1H-imidazol-5-yl)methyl)piperidin-4-yl)-2-(2,5-dimethylpyridin-4-yl)-3-isopropyl-1H-indole], the half-inhibitory concentration (IC50) was 13.8 nM in test [1]; 1.2 nM in test [2] (TLR8 IC50, HEK-Blue cells, R848 15.9 μM); 729 nM in test [3] (TLR9 IC50, HEK-Blue cells, ODN2006 5 nM).

As to `Cc1cc(-c2[nH]c3cc(F)c(C4CCN(C5CCN(C(C)C)CC5)CC4)cc3c2C(C)C)ccn1` [Example 825, 6-fluoro-3-isopropyl-5-(1′-isopropyl-[1,4′-bipiperidin]-4-yl)-2-(2-methylpyridin-4-yl)-1H-indole], the IC50 in test [1] worked out at 6.5 nM; in test [2] (setting [4]) it was 8.1 nM; in test [3] (setting [5]), 380 nM.

On to `CC(=O)N1CCC(c2ccc3[nH]c(-c4ccnc(C)c4)c(C(C)C)c3c2)CC1` [Example 826, 1-(4-(3-isopropyl-2-(2-methylpyridin-4-yl)-1H-indol-5-yl)piperidin-1-yl)ethan-1-one], for which the results for the 50% inhibitory concentration (IC50) in test [1], in test [2] (setting [4]) and in test [3] (setting [5]) were 42.6 nM, 186 nM and 43400 nM, respectively.

As to `CC(=O)N1CCC(N2CCC(c3ccc4[nH]c(-c5ccnc(C)c5)c(C(C)C)c4c3)CC2)CC1` [Example 827, 1-(4-(3-isopropyl-2-(2-methylpyridin-4-yl)-1H-indol-5-yl)-[1,4′-bipiperidin]-1′-yl)ethan-1-one], the values for the concentration for half-maximal inhibition (IC50) in test [1], in test [2] (setting [4]) and in test [3] (setting [5]) were 12.7 nM, 5.2 nM and 753 nM, respectively.

Consider `Cc1cc(-c2[nH]c3cc(F)c(C4CCN(C)CC4)cc3c2C(C)C)cc(C)n1` [Example 828, 2-(2,6-dimethylpyridin-4-yl)-6-fluoro-3-isopropyl-5-(1-methylpiperidin-4-yl)-1H-indole], for which the results for the IC50 in test [1], in test [2] (setting [4]) and in test [3] (setting [5]) were 1.2 nM, 4.8 nM and 267 nM, respectively.

Turning to `CC(=O)N1CCC(c2cc3c(C(C)C)c(-c4cc(C)nc(C)c4)[nH]c3cc2F)CC1` [Example 829, 1-(4-(2-(2,6-dimethylpyridin-4-yl)-6-fluoro-3-isopropyl-1H-indol-5-yl)piperidin-1-yl)ethan-1-one], the concentration for half-maximal inhibition (IC50) is 17.5 nM in test [1], 63.4 nM in test [2] (setting [4]) and 3070 nM in test [3] (setting [5]).

As for `Cc1cc(-c2[nH]c3cc(F)c(C4CCN(C5CC(C)OC(C)C5)CC4)cc3c2C(C)C)cc(C)n1` (stereo not drawn) [Example 830, 2-(2,6-dimethylpyridin-4-yl)-5-(1-(2,6-dimethyltetrahydro-2H-pyran-4-yl)piperidin-4-yl)-6-fluoro-3-isopropyl-1H-indole], the IC50 came out at 4.8 nM in test [1], 17.3 nM in test [2] (setting [4]) and 229 nM in test [3] (setting [5]).

As for `Cc1cc(-c2[nH]c3cc(F)c(C4CCN(C5CCOCC5)CC4)cc3c2C(C)C)cc(C)n1` [Example 831, 2-(2,6-dimethylpyridin-4-yl)-6-fluoro-3-isopropyl-5-(1-(tetrahydro-2H-pyran-4-yl)piperidin-4-yl)-1H-indole], the results for the half-inhibitory concentration (IC50) in test [1], in test [2] (setting [4]) and in test [3] (setting [5]) were 6.2 nM, 11.6 nM and 567 nM, respectively.

For `Cc1cc(-c2[nH]c3cc(F)c(C4CCN(Cc5ncn(C)n5)CC4)cc3c2C(C)C)cc(C)n1` [Example 832, 2-(2,6-dimethylpyridin-4-yl)-6-fluoro-3-isopropyl-5-(1-((1-methyl-1H-1,2,4-triazol-3-yl)methyl)piperidin-4-yl)-1H-indole], the IC50 in test [1] came out at 6.2 nM; in test [2] (setting [4]), 25.4 nM; in test [3] (setting [5]), 3080 nM.

In the case of `Cc1cc(-c2[nH]c3cc(F)c(C4CCN(C5CC(C)OC(C)C5)CC4)cc3c2C(C)C)cc(C)n1` (stereo not drawn) [Example 833, 2-(2,6-dimethylpyridin-4-yl)-5-(1-(2,6-dimethyltetrahydro-2H-pyran-4-yl)piperidin-4-yl)-6-fluoro-3-isopropyl-1H-indole], the concentration for half-maximal inhibition (IC50) in test [1] was found to be 9.4 nM; in test [2] (setting [4]), 29.6 nM; in test [3] (setting [5]), 556 nM.

With `Cc1cc(-c2[nH]c3cc(F)c(C4CCN(CC(=O)N(C)C)CC4)cc3c2C(C)C)c(C)cn1` [Example 835, 2-(4-(2-(2,5-dimethylpyridin-4-yl)-6-fluoro-3-isopropyl-1H-indol-5-yl)piperidin-1-yl)-N,N-dimethylacetamide], the IC50 in test [1] was 2.9 nM; in test [2] (setting [4]), 3.4 nM; in test [3] (setting [5]) it was 1950 nM.

With `Cc1cc(-c2[nH]c3cc(F)c(C4CCN(CC(=O)N(C)C)CC4)cc3c2C(C)C)c(F)cn1` [Example 836, 2-(4-(6-fluoro-2-(5-fluoro-2-methylpyridin-4-yl)-3-isopropyl-1H-indol-5-yl)piperidin-1-yl)-N,N-dimethylacetamide], the IC50 in test [1] was determined as 3.9 nM; in test [2] (setting [4]) it was 11.8 nM; in test [3] (setting [5]), 4730 nM.
